Where “and” joins values, the source holds several entries; their conditions need not be identical. Identical values can stand only once. ± gives the expanded uncertainty stated by the source.
Conditions: 303.15 K; 100 kPa; Liquid; Capillary tube (Ostwald / Ubbelohde) method

Structure (SMILES) | viscosity
C1CC[C@H]2CCCC[C@@H]2C1 [trans-decahydronaphthalene] | 1.769 ± 0.014 mPa·s
CCCCCCCCCCC [undecane] | 1.004 ± 0.013 mPa·s

Same assay, conditions: 303.15 K; 100 kPa; Liquid; Vibrating tube method

Structure (SMILES) | mass density
C1CC[C@H]2CCCC[C@H]2C1 [cis-decahydronaphthalene] | 889.26 ± 0.48 kg/m3
CCCCCCCCCC [decane] | 723.64 ± 0.23 kg/m3
CCCCCCCCC [nonane] | 710.2 ± 0.24 kg/m3
C1CC[C@H]2CCCC[C@@H]2C1 [trans-decahydronaphthalene] | 862.34 ± 0.14 kg/m3
CCCCCCCCCCC [undecane] | 732.93 ± 0.32 kg/m3

Same assay, conditions: 308.15 K; 100 kPa; Liquid; Capillary tube (Ostwald / Ubbelohde) method

Structure (SMILES) | viscosity
C1CC[C@H]2CCCC[C@H]2C1 [cis-decahydronaphthalene] | 2.47 ± 0.026 mPa·s
CCCCCCCCCC [decane] | 0.751 ± 0.011 mPa·s
CCCCCCCCC [nonane] | 0.604 ± 0.011 mPa·s
C1CC[C@H]2CCCC[C@@H]2C1 [trans-decahydronaphthalene] | 1.628 ± 0.013 mPa·s
CCCCCCCCCCC [undecane] | 0.931 ± 0.013 mPa·s

Same assay, conditions: 308.15 K; 100 kPa; Liquid; Vibrating tube method

Structure (SMILES) | mass density
C1CC[C@H]2CCCC[C@H]2C1 [cis-decahydronaphthalene] | 885.46 ± 0.48 kg/m3
CCCCCCCCCC [decane] | 719.84 ± 0.23 kg/m3
CCCCCCCCC [nonane] | 706.29 ± 0.25 kg/m3
C1CC[C@H]2CCCC[C@@H]2C1 [trans-decahydronaphthalene] | 858.61 ± 0.14 kg/m3
CCCCCCCCCCC [undecane] | 729.22 ± 0.32 kg/m3

Same assay, conditions: 313.15 K; 100 kPa; Liquid; Capillary tube (Ostwald / Ubbelohde) method

Structure (SMILES) | viscosity
C1CC[C@H]2CCCC[C@H]2C1 [cis-decahydronaphthalene] | 2.252 ± 0.024 mPa·s
CCCCCCCCCC [decane] | 0.709 ± 0.011 mPa·s
CCCCCCCCC [nonane] | 0.571 ± 0.011 mPa·s
C1CC[C@H]2CCCC[C@@H]2C1 [trans-decahydronaphthalene] | 1.505 ± 0.013 mPa·s
CCCCCCCCCCC [undecane] | 0.862 ± 0.013 mPa·s

Same assay, conditions: 313.15 K; 100 kPa; Liquid; Vibrating tube method

Structure (SMILES) | mass density
C1CC[C@H]2CCCC[C@H]2C1 [cis-decahydronaphthalene] | 881.65 ± 0.48 kg/m3
CCCCCCCCCC [decane] | 716.03 ± 0.23 kg/m3
CCCCCCCCC [nonane] | 702.35 ± 0.25 kg/m3
C1CC[C@H]2CCCC[C@@H]2C1 [trans-decahydronaphthalene] | 854.88 ± 0.14 kg/m3
CCCCCCCCCCC [undecane] | 725.51 ± 0.32 kg/m3

Same assay, conditions: 318.15 K; 100 kPa; Liquid; Capillary tube (Ostwald / Ubbelohde) method

Structure (SMILES) | viscosity
C1CC[C@H]2CCCC[C@H]2C1 [cis-decahydronaphthalene] | 2.079 ± 0.022 mPa·s and 2.063 ± 0.022 mPa·s
CCCCCCCCCC [decane] | 0.667 ± 0.011 mPa·s
CCCCCCCCC [nonane] | 0.547 ± 0.011 mPa·s
C1CC[C@H]2CCCC[C@@H]2C1 [trans-decahydronaphthalene] | 1.394 ± 0.013 mPa·s
CCCCCCCCCCC [undecane] | 0.801 ± 0.012 mPa·s

Same assay, conditions: 318.15 K; 100 kPa; Liquid; Vibrating tube method

Structure (SMILES) | mass density
C1CC[C@H]2CCCC[C@H]2C1 [cis-decahydronaphthalene] | 877.85 ± 0.47 kg/m3
CCCCCCCCCC [decane] | 712.2 ± 0.23 kg/m3
CCCCCCCCC [nonane] | 698.4 ± 0.25 kg/m3
C1CC[C@H]2CCCC[C@@H]2C1 [trans-decahydronaphthalene] | 851.14 ± 0.14 kg/m3
CCCCCCCCCCC [undecane] | 721.78 ± 0.32 kg/m3

Same assay, conditions: 323.15 K; 100 kPa; Liquid; Capillary tube (Ostwald / Ubbelohde) method

Structure (SMILES) | viscosity
C1CC[C@H]2CCCC[C@H]2C1 [cis-decahydronaphthalene] | 1.912 ± 0.021 mPa·s and 1.898 ± 0.021 mPa·s
CCCCCCCCCC [decane] | 0.632 ± 0.011 mPa·s
CCCCCCCCC [nonane] | 0.521 ± 0.011 mPa·s
C1CC[C@H]2CCCC[C@@H]2C1 [trans-decahydronaphthalene] | 1.295 ± 0.012 mPa·s
CCCCCCCCCCC [undecane] | 0.749 ± 0.012 mPa·s

Same assay, conditions: 323.15 K; 100 kPa; Liquid; Vibrating tube method

Structure (SMILES) | mass density
C1CC[C@H]2CCCC[C@H]2C1 [cis-decahydronaphthalene] | 874.05 ± 0.47 kg/m3
CCCCCCCCCC [decane] | 708.36 ± 0.23 kg/m3
CCCCCCCCC [nonane] | 694.43 ± 0.25 kg/m3
C1CC[C@H]2CCCC[C@@H]2C1 [trans-decahydronaphthalene] | 847.4 ± 0.14 kg/m3
CCCCCCCCCCC [undecane] | 718.04 ± 0.31 kg/m3
